According to patent US20110311613A1, “TOPICAL FORMULATIONS OF FLAP INHIBITORS FOR THE TREATMENT OF DERMATOLOGICAL CONDITIONS” (AMIRA PHARMACEUTICAL, INC., priority 2008, published 2011):
Where two headings read alike, the source gives them in different places.

Experiments:
Leukotriene B4 (LTB4) = test: Mouse arachidonic acid-induced ear inflammation model, leukotriene analysis (EIA) of LTB4; format: in vivo
Protocol: (§1) A mouse arachidonic acid (AA)—induced ear inflammation model was utilized to determine the extent of inhibition of ear swelling and leukotriene (LT) production by oral and topical application of a 5-lipoxygenase-activating protein (FLAP) inhibitor. Methods were adapted from Byrum et al., J Exp Med. 1997 Mar. 17; 185(6):1065-75).
(§2) Female CD-1 mice (weighing 18-20 grams) were administered compound orally (30 mg/kg in 10 ml/kg of 0.5% methylcellulose vehicle) or topically at concentrations of 0.01-10% by weight to the experimental ear and vehicle was applied to the opposite control ear. Four hours following compound administration a […] aliquot of a 4 mg/ml solution of AA in ethanol was applied to the experimental (right) ear and vehicle (ethanol) was applied to the control (left) ear. Thirty minutes later mice were placed into an enclosed Plexiglas chamber and exposed to CO2 for a period of 1-2 minutes or until breathing ceased. Ear biopsies were then taken for assessment of inflammation and leukotriene levels.
(§3) The ear punch was placed into a tris buffer containing 0.01% triton x and homogenized using a polytron probe homogenizer. The sample was then centrifuged at 10,000×g for 10 minutes at 4° C. Leukotriene B4 (LTB4) and cysteinyl leukotriene (CysLT) concentrations in the supernatant were determined by enzyme-immunoassay (EIA).

[1] = test system: cysteinyl leukotriene (CysLT); test: Mouse arachidonic acid-induced ear inflammation model, leukotriene analysis (EIA) of CysLT; format: in vivo
Protocol: as §1, §2, §3

[2] = Solubility in topical formulation (75% propylene glycol, 15% transcutol, 10% water); format: physicochemical; details: aqueous with cosolvent or surfactant or cyclodextrin, solution of 75% propylene glycol, read-out: soluble in topical formulation
Protocol: In one aspect, a topical formulation of a FLAP inhibitor compound is prepared by mixing a FLAP inhibitor compound with propylene glycol, transcutol and water. In one aspect, the topical formulation includes a FLAP inhibitor compound (10 mg/mL) in a solution of 75% propylene glycol, 15% transcutol, 10% water.
Using this formulation, the following FLAP inhibitor compounds are all soluble at 10 mg/mL: Compound A (Na salt), Compound B (Na salt), Compound C (acid and Na salt), Compound F (Na salt), Compound G (Na salt), Compound I (acid), and Compound J (Na salt).

[3] = test system: arachidonic acid-induced ear inflammation; test: Mouse arachidonic acid-induced ear inflammation model, ear inflammation (ear punch weight); format: in vivo
Protocol: as §1, §2
An eight mm ear punch was taken from a similar location of each experimental ear and each control ear and weighed. The extent of inflammation was determined by the difference in weight between the experimental ear and control ear [experimental ear (mg)-control ear (mg)]. A typical response for this assay is in the range of 4 and 12 mg increase in weight. Ear punches were then frozen for later assessment of leukotrienes.

Male Sprague Dawley Rats = test: Rat abraded skin model, acute irritancy (Draize scoring) following dermal administration; format: in vivo; details: 2 mL of 10 mg/mL solution on abraded skin, occluded 24 hours; erythema, edema scored at 24, 48 and 72 hours; each animal
Protocol: (§4) Male Sprague Dawley Rats (n=3 per group) were shaved on the back such that approximately 20% of the body area surface was exposed. The shaved skin was mildly abraded then 2 mL of a 10 mg/mL solution of the test compound in a formulation containing 75% propylene glycol, 15% transcutol, 10% water was applied to the abraded skin. The site of administration was occluded for 24 hours after which time the skin was cleansed of excess material (if any). Plasma samples were drawn from each rat at 2, 4, 24 and 72 hours.
Visual analysis of erythema, edema or other dermal findings were recorded prior to dosing then at 24, 48 and 72 hours. Scoring followed a Draize protocol.

[4] = Rat abraded skin model, skin penetration (plasma levels) following dermal administration; format: in vivo; details: for plasma levels (PK analysis): abraded skin, samples at 2, 4, 24 and 72 hours; for concentration at 24 h: male, Sprague Dawley, plasma, topical, 20 mg, 2 mL of 10 mg/mL solution on abraded skin, occluded 24 hours, read-out: plasma levels at the 24 hour time point
Protocol: as §4

[5] = mouse, in vivo, 10 mg/kg
Protocol: (§5) BALB/c mice were divided into groups and acclimatized in cages for 24 hours (day 0). The control group was exposed to air and the test group was exposed to smoke from seven unfiltered cigarettes per day for 8 days (day 1 to day 8). […] On day 14, bronchioalveolar lavage fluid (BALF) is tested for influx of cells, cytokines, chemokines (e.g., KC, IL-17, MIP-2, IL-6), mucin, and/or proteins. Lung histology is also examined.

[6] = Trough plasma concentration in subchronic smoking mouse model; details: BALB/c mice, combination DP2 receptor antagonist + FLAP inhibitor
Protocol: as §5

solubility [2] [mg/mL]	plasma levels (PK analysis) [4]	concentration at 24 h [4] [µg/mL]	SMILES	Draize score (Male Sprague Dawley Rats)	also measured
≥ 10	measurable plasma levels	< 0.11	COc1cnc(-c2ccc(Cn3c(CC(C)(C)C(=O)O)c(SC(C)(C)C)c4cc(OCc5ccc(C)cn5)ccc43)cc2)nc1 [Compound A, 3-[3-tert-Butylsulfanyl-1-[4-(5-methoxy-pyrimidin-2-yl)-benzyl]-5-(5-methyl-pyridin-2-ylmethoxy)-1H-indol-2-yl]-2,2-dimethyl-propionic acid]	0	reduction of LTB4 levels (Leukotriene B4 (LTB4); applied dermally 4 hours prior to AA treatment (FIG. 3B)): about 55%; reduction of LTB4 levels (Leukotriene B4 (LTB4); oral, 30 mg/kg, 4 hours prior to AA treatment (FIG. 2B)): about 33%; reduction of CysLT levels ([1]; applied dermally 4 hours prior to AA treatment (FIG. 3C)): about 37%; reduction of CysLT levels ([1]; oral, 30 mg/kg, 4 hours prior to AA treatment (FIG. 2C)): about 57%; reduction of inflammation by measure of change in ear weight ([3]; applied dermally 4 hours prior to AA treatment (FIG. 3A)): about 60%; reduction of inflammation by measure of change in ear weight ([3]; oral, 30 mg/kg, 4 hours prior to AA treatment (FIG. 2A)): about 65%; topical concentration of maximal activity ([3]; topical concentrations of 0.01-10%, all three endpoints (ear weight, LTB4, CysLT)): 0.1%
≥ 10	measurable plasma levels	< 0.11	COc1cnc(-c2ccc(Cn3c(CC(C)(C)C(=O)O)c(SC(C)(C)C)c4cc(OCc5cnc(C)cn5)ccc43)cc2)nc1 [Compound B, 3-[3-tert-Butylsulfanyl-1-[4-(5-methoxy-pyrimidin-2-yl)-benzyl]-5-(5-methyl-pyrazin-2-ylmethoxy)-1H-indol-2-yl]-2,2-dimethyl-propionic acid]	0	
≥ 10	measurable plasma levels	< 0.11	COc1cnc(-c2ccc(Cn3c(CC(C)(C)C(=O)O)c(SC(C)(C)C)c4cc(OC[C@@H]5Cc6ccccc6N5C(C)=O)ccc43)cc2)nc1 [Compound C, 3-{5-((S)-1-Acetyl-2,3-dihydro-1H-indol-2-ylmethoxy)-3-tert-butylsulfanyl-1-[4-(5-methoxy-pyrimidin-2-yl)-benzyl]-1H-indol-2-yl}-2,2-dimethyl-propionic acid]	0	
≥ 10	measurable plasma levels	< 0.11	CC(C)(C)Sc1c(CC(C)(C)C(=O)O)n(Cc2ccc(-c3ccc(F)cn3)cc2)c2ccc(OCc3ccc4ccccc4n3)cc12 [Compound F, 3-[3-tert-Butylsulfanyl-1-[4-(5-fluoro-pyridin-2-yl)-benzyl]-5-(quinolin-2-ylmethoxy)-1H-indol-2-yl]-2,2-dimethyl-propionic acid]	0	
≥ 10	measurable plasma levels	< 0.11	CCC(CC)(Cc1c(SC(C)(C)C)c2cc(OCc3ccc(C)cn3)ccc2n1Cc1ccc(-c2ncc(OC)cn2)cc1)C(=O)O [Compound G, 2-[3-tert-Butylsulfanyl-1-[4-(5-methoxy-pyrimidin-2-yl)-benzyl]-5-(5-methyl-pyridin-2-ylmethoxy)-1H-indol-2-ylmethyl]-2-ethyl-butyric acid]	0	
≥ 10	measurable plasma levels	< 0.11	CC(=O)N1CCC[C@H]1COc1ccc2c(c1)c(SC(C)(C)C)c(CC(C)(C)C(=O)O)n2Cc1ccc(Cl)cc1 [Compound I, 3-[5-((S)-1-Acetyl-pyrrolidin-2-ylmethoxy)-3-tert-butylsulfanyl-1-(4-chloro-benzyl)-1H-indol-2-yl]-2,2-dimethyl-propionic acid]	0	
≥ 10	measurable plasma levels	< 0.11	CC(C)(C)Sc1c(CC(C)(C)C(=O)O)n(Cc2ccc(-c3ccc(F)cn3)cc2)c2ccc(OCc3ccccn3)cc12 [Compound J, 3-[3-tert-butylsulfanyl-1-[4-(5-fluoro-pyridin-2-yl)-benzyl]-5-(pyridin-2-ylmethoxy)-1H-indol-2-yl]-2,2-dimethyl-propionic acid]	0	
			CCN(Cc1cc(C(F)(F)F)ccc1-c1cncc(CC(=O)O)c1)C(=O)OCc1ccccc1 [DP2 receptor antagonist]		Plasma concentration @ trough [5]: <0.01 µM
			COc1ccc(-c2ccc(Cn3c(CC(C)(C)C(=O)O)c(SC(C)(C)C)c4cc(OCc5ccc(C)cn5)ccc43)cc2)cn1 [FLAP inhibitor, 3-(3-(tert-butylthio)-1-(4-(6-methoxypyridin-3-yl)benzyl)-5-((5-methylpyridin-2-yl)methoxy)-1H-indol-2-yl)-2,2-dimethylpropanoic acid]		Plasma concentration @ trough [6]: 136 (FLAP inhibitor) nM
